# According to PubChem BioAssay (NCI):
#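 Protocol summary: plate cells (96-well), add compound at 5 concentrations, incubate 48 h, interpolate endpoints linearly. Definition used: TGI = concentration required for complete inhibition of growth.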
# Columns and labels:
# Experiment in all cases: growth of human tumour cells (NCI), 48 h
# CCRF-CEM leukemia = system: CCRF-CEM leukemia
# NCI-H460 lung = system: NCI-H460 lung
# M14 melanoma = system: M14 melanoma
# UO-31 renal = system: UO-31 renal
# SK-MEL-28 melanoma = system: SK-MEL-28 melanoma
# UACC-62 melanoma = system: UACC-62 melanoma
# SF-539 CNS = system: SF-539 CNS
# ACHN renal = system: ACHN renal
# SK-MEL-5 melanoma = system: SK-MEL-5 melanoma
# OVCAR-4 ovarian = system: OVCAR-4 ovarian
# IGROV1 ovarian = system: IGROV1 ovarian
# MALME-3M melanoma = system: MALME-3M melanoma
# HOP-62 NSCLC = system: HOP-62 NSCLC
# RXF 393 renal = system: RXF 393 renal
# DMS 114 small cell lung = system: DMS 114 small cell lung
# SNB-75 CNS = system: SNB-75 CNS
# DLD-1 colon = system: DLD-1 colon
# SK-OV-3 ovarian = system: SK-OV-3 ovarian
# M19-MEL melanoma = system: M19-MEL melanoma
# SNB-19 CNS = system: SNB-19 CNS
# HCT-15 colon = system: HCT-15 colon
# SF-268 CNS = system: SF-268 CNS
# LXFL 529 NSCLC = system: LXFL 529 NSCLC
# TK-10 renal = system: TK-10 renal
# OVCAR-8 ovarian = system: OVCAR-8 ovarian
# CAKI-1 renal = system: CAKI-1 renal
# A549 NSCLC = system: A549 NSCLC
# A498 renal = system: A498 renal
# K-562 leukemia = system: K-562 leukemia
# DMS 273 small cell lung = system: DMS 273 small cell lung
# HOP-18 NSCLC = system: HOP-18 NSCLC
# COLO 205 colon = system: COLO 205 colon
# NCI-H226 lung = system: NCI-H226 lung
# HL-60(TB) leukemia = system: HL-60(TB) leukemia
# SN12C renal = system: SN12C renal
# HCT-116 colon = system: HCT-116 colon
# SK-MEL-2 melanoma = system: SK-MEL-2 melanoma
# KM20L2 colon = system: KM20L2 colon
# SW-620 colon = system: SW-620 colon
# KM12 colon = system: KM12 colon
# UACC-257 melanoma = system: UACC-257 melanoma
# SR leukemia = system: SR leukemia
# 786-0 renal = system: 786-0 renal
# RPMI-8226 leukemia = system: RPMI-8226 leukemia
# U251 CNS = system: U251 CNS
# NCI-H522 lung = system: NCI-H522 lung
# HCC-2998 colon = system: HCC-2998 colon
# MOLT-4 leukemia = system: MOLT-4 leukemia
# SNB-78 CNS = system: SNB-78 CNS
# OVCAR-5 ovarian = system: OVCAR-5 ovarian
# SF-295 CNS = system: SF-295 CNS
# EKVX NSCLC = system: EKVX NSCLC
# NCI-H23 lung = system: NCI-H23 lung
# OVCAR-3 ovarian = system: OVCAR-3 ovarian
# LOX IMVI melanoma = system: LOX IMVI melanoma
# XF 498 CNS = system: XF 498 CNS
compound,measurement,setting,value
C1CCOC2(CCC3(CC2)OCCCCO3)OC1,TGI,CCRF-CEM leukemia,> 100 µM
same,TGI,NCI-H460 lung,> 100 µM
same,TGI,M14 melanoma,> 100 µM
same,TGI,UO-31 renal,> 100 µM
same,TGI,SK-MEL-28 melanoma,> 100 µM
same,TGI,UACC-62 melanoma,> 100 µM
same,TGI,SF-539 CNS,> 100 µM
same,TGI,ACHN renal,> 100 µM
same,TGI,SK-MEL-5 melanoma,> 100 µM
same,TGI,OVCAR-4 ovarian,> 100 µM
same,TGI,IGROV1 ovarian,> 100 µM
same,TGI,MALME-3M melanoma,> 100 µM
same,TGI,HOP-62 NSCLC,> 100 µM
same,TGI,RXF 393 renal,> 100 µM
same,TGI,DMS 114 small cell lung,> 100 µM
same,TGI,SNB-75 CNS,> 100 µM
same,TGI,DLD-1 colon,> 100 µM
same,TGI,SK-OV-3 ovarian,> 100 µM
same,TGI,M19-MEL melanoma,> 100 µM
same,TGI,SNB-19 CNS,> 100 µM
same,TGI,HCT-15 colon,> 100 µM
same,TGI,SF-268 CNS,> 100 µM
same,TGI,LXFL 529 NSCLC,> 100 µM
same,TGI,TK-10 renal,> 100 µM
same,TGI,OVCAR-8 ovarian,> 100 µM
same,TGI,CAKI-1 renal,> 100 µM
same,TGI,A549 NSCLC,> 100 µM
same,TGI,A498 renal,> 100 µM
same,TGI,K-562 leukemia,> 100 µM
same,TGI,DMS 273 small cell lung,> 100 µM
same,TGI,HOP-18 NSCLC,> 100 µM
same,TGI,COLO 205 colon,> 100 µM
same,TGI,NCI-H226 lung,> 100 µM
same,TGI,HL-60(TB) leukemia,> 100 µM
same,TGI,SN12C renal,> 100 µM
same,TGI,HCT-116 colon,> 100 µM
same,TGI,SK-MEL-2 melanoma,> 100 µM
same,TGI,KM20L2 colon,> 100 µM
same,TGI,SW-620 colon,> 100 µM
same,TGI,KM12 colon,> 100 µM
same,TGI,UACC-257 melanoma,> 100 µM
same,TGI,SR leukemia,> 100 µM
same,TGI,786-0 renal,> 100 µM
same,TGI,RPMI-8226 leukemia,> 100 µM
same,TGI,U251 CNS,> 100 µM
same,TGI,NCI-H522 lung,> 100 µM
same,TGI,HCC-2998 colon,> 100 µM
same,TGI,MOLT-4 leukemia,> 100 µM
same,TGI,SNB-78 CNS,> 100 µM
CCC1CCc2c(OC)ccc(OCC(=O)O)c2C1=O (configuration not stated),TGI,CCRF-CEM leukemia,> 100 µM
same,TGI,M14 melanoma,> 100 µM
same,TGI,UO-31 renal,> 100 µM
same,TGI,OVCAR-5 ovarian,> 100 µM
same,TGI,SK-MEL-28 melanoma,> 100 µM
same,TGI,UACC-62 melanoma,> 100 µM
same,TGI,SF-539 CNS,> 100 µM
same,TGI,ACHN renal,> 100 µM
same,TGI,SK-MEL-5 melanoma,> 100 µM
same,TGI,OVCAR-4 ovarian,> 100 µM
same,TGI,IGROV1 ovarian,> 100 µM
same,TGI,MALME-3M melanoma,> 100 µM
same,TGI,HOP-62 NSCLC,> 100 µM
same,TGI,SF-295 CNS,> 100 µM
same,TGI,RXF 393 renal,> 100 µM
same,TGI,EKVX NSCLC,> 100 µM
same,TGI,DMS 114 small cell lung,> 100 µM
same,TGI,SNB-75 CNS,> 100 µM
same,TGI,DLD-1 colon,> 100 µM
same,TGI,SK-OV-3 ovarian,> 100 µM
same,TGI,M19-MEL melanoma,> 100 µM
same,TGI,SNB-19 CNS,> 100 µM
same,TGI,HCT-15 colon,> 100 µM
same,TGI,SF-268 CNS,> 100 µM
same,TGI,LXFL 529 NSCLC,> 100 µM
same,TGI,TK-10 renal,> 100 µM
same,TGI,OVCAR-8 ovarian,> 100 µM
same,TGI,A549 NSCLC,> 100 µM
same,TGI,K-562 leukemia,> 100 µM
same,TGI,DMS 273 small cell lung,> 100 µM
same,TGI,COLO 205 colon,> 100 µM
same,TGI,NCI-H226 lung,> 100 µM
same,TGI,HL-60(TB) leukemia,> 100 µM
same,TGI,SN12C renal,> 100 µM
same,TGI,SK-MEL-2 melanoma,> 100 µM
same,TGI,NCI-H23 lung,> 100000 nM
same,TGI,SW-620 colon,> 100 µM
same,TGI,OVCAR-3 ovarian,> 100 µM
same,TGI,KM12 colon,> 100 µM
same,TGI,UACC-257 melanoma,> 100 µM
same,TGI,SR leukemia,> 100 µM
same,TGI,786-0 renal,> 100 µM
same,TGI,RPMI-8226 leukemia,> 100 µM
same,TGI,U251 CNS,> 100 µM
same,TGI,LOX IMVI melanoma,> 100 µM
same,TGI,NCI-H522 lung,> 100 µM
same,TGI,HCC-2998 colon,> 100 µM
same,TGI,MOLT-4 leukemia,> 100 µM
same,TGI,XF 498 CNS,> 100 µM
same,TGI,SNB-78 CNS,> 100 µM
COc1cc([C@@H]2c3cc4c(cc3[C@@H](OC(=O)c3ccccc3)C3COC(=O)[C@@H]32)OCO4)cc(OC)c1O (some centres not stated),TGI,CCRF-CEM leukemia,> 100 µM
same,TGI,NCI-H460 lung,20.9 µM
same,TGI,UO-31 renal,33.5 µM
same,TGI,OVCAR-5 ovarian,> 100 µM
same,TGI,SK-MEL-28 melanoma,> 100 µM
same,TGI,ACHN renal,18.4 µM
same,TGI,OVCAR-4 ovarian,> 100 µM
same,TGI,MALME-3M melanoma,29.9 µM
same,TGI,HOP-62 NSCLC,28.7 µM
same,TGI,SF-295 CNS,> 100 µM
same,TGI,DMS 114 small cell lung,0.0229 µM
same,TGI,SNB-75 CNS,36.8 µM
same,TGI,SK-OV-3 ovarian,> 100 µM
same,TGI,M19-MEL melanoma,69 µM
same,TGI,SF-268 CNS,> 100 µM
same,TGI,LXFL 529 NSCLC,> 100 µM
same,TGI,TK-10 renal,> 100 µM
same,TGI,OVCAR-8 ovarian,> 100 µM
same,TGI,CAKI-1 renal,79.2 µM
same,TGI,A549 NSCLC,35.6 µM
same,TGI,K-562 leukemia,> 100 µM
same,TGI,DMS 273 small cell lung,> 100 µM
same,TGI,HOP-18 NSCLC,> 100 µM
same,TGI,COLO 205 colon,0.963 µM
same,TGI,HL-60(TB) leukemia,15.4 µM
same,TGI,SN12C renal,26.9 µM
same,TGI,NCI-H23 lung,64.2 nM
same,TGI,SW-620 colon,> 100 µM
same,TGI,786-0 renal,45.5 µM
same,TGI,RPMI-8226 leukemia,44 µM
same,TGI,LOX IMVI melanoma,84.5 µM
same,TGI,HCC-2998 colon,> 100 µM
same,TGI,MOLT-4 leukemia,41.4 µM
